The values below come from PubChem BioAssay (NCI).

Test systems include OVCAR-4 ovarian; HL-60(TB) leukemia; HOP-62 NSCLC; SK-MEL-2 melanoma; M14 melanoma; MDA-MB-231 breast; SK-OV-3 ovarian; MDA-N; SN12C renal; CCRF-CEM leukemia; DU-145 prostate; MDA-MB-435; MALME-3M melanoma; NCI-H460 lung; A498 renal; HCT-116 colon; TK-10 renal; HCC-2998 colon; SW-620 colon; SNB-75 CNS.
Assay in all cases: NCI tumour cell line growth inhibition, 48 h

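Interpolation was linear, between the two tested concentrations surrounding the appropriate level; five concentrations were tested over 48 hours in 96-well plates. The concentration for full growth arrest is given as TGI.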

Take `N#CC1=C(N2CCCC2)NC(=O)CC1=O`: the TGI with OVCAR-4 ovarian, with HL-60(TB) leukemia, in the assay on HOP-62 NSCLC, in the assay with SK-MEL-2 melanoma, in the assay on M14 melanoma and in the assay on MDA-MB-231 breast was greater than 100 µM each time. In addition, the TGI in the assay with SK-OV-3 ovarian, in the assay on MDA-N, with SN12C renal, in the assay with CCRF-CEM leukemia, in the assay with DU-145 prostate and in the assay with MDA-MB-435 was greater than 100 µM each time. The TGI in the assay on MALME-3M melanoma, in the assay on NCI-H460 lung, with A498 renal, in the assay with HCT-116 colon, with TK-10 renal and with HCC-2998 colon was greater than 100 µM throughout. In the assay with SW-620 colon, this compound yielded a TGI greater than 100 µM.
For the compound `c1ccc2c(c1)nc1n2CNCC1`, the TGI in the assay on OVCAR-4 ovarian, with HL-60(TB) leukemia, with HOP-62 NSCLC, in the assay on SK-MEL-2 melanoma, in the assay with M14 melanoma and in the assay on MDA-MB-231 breast was greater than 100 µM in each case. Also, the TGI in the assay on SK-OV-3 ovarian, in the assay with MDA-N, with SN12C renal, in the assay on DU-145 prostate, in the assay with MDA-MB-435 and with SNB-75 CNS was greater than 100 µM throughout. In addition, the TGI in the assay with MALME-3M melanoma, with NCI-H460 lung, in the assay with A498 renal, in the assay with HCT-116 colon, with TK-10 renal and with HCC-2998 colon was greater than 100 µM in each case. The TGI in the assay on SW-620 colon is greater than 100 µM.
As for `Cc1nc(N)c(N2CCNCC2)c(=O)[nH]1`, the TGI in the assay with HL-60(TB) leukemia, with HOP-62 NSCLC, in the assay with SK-MEL-2 melanoma, in the assay with M14 melanoma, in the assay with MDA-MB-231 breast and in the assay on MDA-N was greater than 100 µM throughout. The TGI with SN12C renal, in the assay with CCRF-CEM leukemia, in the assay with DU-145 prostate, in the assay with MDA-MB-435, in the assay with SNB-75 CNS and in the assay on MALME-3M melanoma was greater than 100 µM throughout. The TGI in the assay on NCI-H460 lung, in the assay with A498 renal, with HCT-116 colon, in the assay with TK-10 renal, in the assay with HCC-2998 colon and with SW-620 colon was greater than 100 µM each time.
In the case of `NC(N)=N/N=C/c1c(Cl)nc2sccn12`, the TGI with OVCAR-4 ovarian was 46.4 µM; with HL-60(TB) leukemia it was 42.1 µM; in the assay on HOP-62 NSCLC, 66.8 µM; with M14 melanoma, 34.5 µM; with MDA-MB-231 breast, greater than 100 µM; in the assay with SK-OV-3 ovarian, greater than 100 µM. Further, the TGI was greater than 100 µM with MDA-N; greater than 100 µM in the assay with SN12C renal; 73 µM in the assay with CCRF-CEM leukemia; greater than 100 µM with DU-145 prostate; greater than 100 µM with MDA-MB-435; greater than 100 µM in the assay on SNB-75 CNS. Further, the TGI with MALME-3M melanoma was 50.3 µM; in the assay with NCI-H460 lung, 30.3 µM; in the assay on A498 renal, greater than 100 µM; in the assay with HCT-116 colon, 31.7 µM; in the assay on TK-10 renal, greater than 100 µM; in the assay with HCC-2998 colon, 34 µM. In addition, in the assay on SW-620 colon, the TGI is 41.1 µM.
Turning to `COc1ccccc1N1C(=O)/C(=C\c2cccc(Oc3ccccc3)c2)SC1c1ccccc1` (stereo unspecified), the TGI in the assay with OVCAR-4 ovarian was greater than 100 µM; with HL-60(TB) leukemia, 39.4 µM; in the assay with HOP-62 NSCLC, greater than 100 µM; with SK-MEL-2 melanoma, greater than 100 µM; with M14 melanoma it was greater than 100 µM; in the assay on MDA-MB-231 breast, greater than 100 µM. The TGI with SK-OV-3 ovarian is greater than 100 µM; in the assay with MDA-N, 64.6 µM; with SN12C renal it was greater than 100 µM; in the assay with DU-145 prostate, greater than 100 µM; in the assay with MDA-MB-435 it was greater than 100 µM; in the assay on SNB-75 CNS it was greater than 100 µM. Further, the TGI with MALME-3M melanoma, in the assay on NCI-H460 lung, in the assay on A498 renal, in the assay with HCT-116 colon, with TK-10 renal and in the assay with HCC-2998 colon was greater than 100 µM each time. In the assay with SW-620 colon, this compound gave a TGI of 71 µM.
As for `Clc1ccc2c(NCCCCN=Cc3ccccc3)ccnc2c1`, the TGI was 28.1 µM in the assay on OVCAR-4 ovarian; 23.7 µM with HOP-62 NSCLC; 24.5 µM in the assay with SK-MEL-2 melanoma; 27.4 µM in the assay with M14 melanoma; 29 µM in the assay with MDA-MB-231 breast; 59.8 µM in the assay on SK-OV-3 ovarian. The TGI in the assay with MDA-N is 23.9 µM; with SN12C renal, 21.5 µM; in the assay on CCRF-CEM leukemia, greater than 100 µM; with DU-145 prostate, 80.8 µM; with MDA-MB-435, 25.2 µM; in the assay with SNB-75 CNS, 24.1 µM. The TGI amounted to 27.5 µM in the assay with MALME-3M melanoma; 24.2 µM with NCI-H460 lung; 7.26 µM with A498 renal; 18.4 µM with HCT-116 colon; 64 µM with TK-10 renal; 27.8 µM in the assay on HCC-2998 colon. The compound also had a TGI in the assay with SW-620 colon of 25.2 µM.
As for `S=C(/N=c1/sc(Nc2ccccc2)nc2sc3c(c12)CCCC3)Nc1ccccc1`, the TGI in the assay with OVCAR-4 ovarian, with HL-60(TB) leukemia, with HOP-62 NSCLC, with SK-MEL-2 melanoma, in the assay on MDA-MB-231 breast and in the assay on SK-OV-3 ovarian was greater than 62.5 µM throughout. For the same compound, the TGI in the assay on MDA-N, with SN12C renal, with CCRF-CEM leukemia, with DU-145 prostate, in the assay on MDA-MB-435 and with MALME-3M melanoma was greater than 62.5 µM throughout. Further, the TGI with NCI-H460 lung, with A498 renal, in the assay on HCT-116 colon, in the assay on TK-10 renal, with HCC-2998 colon and in the assay on SW-620 colon was greater than 62.5 µM each time.
